For assay [1], the target named is T1, Estrogen receptor (Homo sapiens, UniProt Q92731+P03372). In words: Displacement of [3H]estradiol from estrogen receptor in immature rabbit. Format: protein assay, Oryctolagus cuniculus. As to conditions: target entry is the homologue from another species. In general terms: Loss of bound radioactivity is the signal in a displacement assay; it reports binding, not function.

For assay [2], the target named is T2, Estrogen receptor (Rattus norvegicus, UniProt P06211+Q62986). In words: Displacement of [3H]estradiol from estrogen receptor in mature rat. Format: protein assay.
A short description of assay [3]: Selectivity ratio for antifertility and estrogenic potencies in rats. Format: functional.
Assay [4] concerns the target T3, Estrogen receptor (Rattus norvegicus) (UniProt P06211+Q62986).
The species named for assay [5] is Rattus norvegicus.
The target in assay [6] is T1, Estrogen receptor. The assay is described as follows: Displacement of [3H]estradiol from estrogen receptor in squirrel monkey. Format: protein assay.
The test system of assay [7] is Rattus norvegicus. In words: In vivo […] activity in rats. Format: functional.
For assay [8], the target named is T3, Estrogen receptor (Rattus norvegicus). In words: In vivo uterotrophic effect in immature rats. Format: functional, organism-based.
The target of assay [9] is T2, Estrogen receptor.
Assay [10] deals with T2, Estrogen receptor. The source holds these as a separate data set.
Assay [11] addresses T1, Estrogen receptor. As to conditions: Macaca mulatta.
Assay [12] addresses T3, Estrogen receptor (Rattus norvegicus). The source holds these as a separate data set.
The target is the same in assay [13]. The source holds these as a separate data set.
The target of assay [14] is T2, Estrogen receptor. In words: Displacement of [3H]estradiol from estrogen receptor in immature rat. Format: protein assay.
Assay [15] concerns Rattus norvegicus. The assay is described as follows: In vivo anti-fertility activity in rat. Format: functional.

Converted amounts (≈) assume the structure as drawn.

The record followed here is ChEMBL document CHEMBL1124539, “17-Desoxy estrogen analogues” (J Med Chem, 1989).

As to `C=C1CC[C@H]2[C@@H]3CCc4cc(O)ccc4[C@H]3CC[C@]12C`, the values for the EC50 in assay [1] and in assay [2] were 1.5 µg/mL (≈ 5.59 µM) and 0.8 µg/mL (≈ 2.98 µM), respectively. For the same compound, the Ratio in assay [3] was 80. Also, the Estrogenic potency came out at 0.5 in assay [4] and 0.65 in [4] (tested as the 2H-labelled form). The compound also came in with an Antifertility potency in [5] of 40.
On to `C#C[C@]1(O)CC[C@H]2[C@@H]3CCc4cc(O)ccc4[C@H]3[C@@H](O)C[C@@]21C`, for which the EC50 (commonly the concentration that produces a half-maximal response) in [6] is 150 µg/mL (≈ 480 µM); in [1] it was 8 µg/mL (≈ 25.6 µM); in [9] it was 5.2 µg/mL (≈ 16.6 µM); in assay [10], 16 µg/mL (≈ 51.2 µM). For the same compound, the Infertility activity was found to be 100 in [7] and 150 in assay [8]. In assay [4], this compound yielded an Estrogenic potency of 120. The same compound had an Estrogenic effect in assay [11] of 500. In addition, the Antifertility potency in assay [5] turned out to be 200. The Uterotrophic effect in assay [12] was 5; in assay [13], 19.
Regarding `C#C[C@]1(O)CC[C@H]2[C@@H]3[C@H](O)Cc4cc(O)ccc4[C@H]3CC[C@@]21C`, the 50% effective concentration (EC50) in [6] stood at 52 µg/mL (≈ 166 µM); in [1], 36 µg/mL (≈ 115 µM); in [14], 18 µg/mL (≈ 57.6 µM); in assay [2], 6 µg/mL (≈ 19.2 µM). The compound also registered an Antifertility activity in [15] of 66. In assay [4], the Estrogenic potency is 0.3. In addition, the Estrogenic effect in [11] worked out at 100. The Antifertility potency in assay [5] is given as 66. Also, the Uterotrophic effect in assay [12] was determined as 0.1; in assay [13], 10.
